Results published in ChEMBL document CHEMBL1201862, “PubChem BioAssay data set” (2004).
Activity calls are given as the source filed them.

Tests used:
[1] = molecular target: Cytochrome P450 2C9 (Homo sapiens, UniProt P11712)
[2] = Luminescence Cell-Based Dose Retest to Confirm Activators of 5'UTR Stem-Loop Driven Alpha-Synuclein mRNA Translation in H4 Neuroglioblastoma Cells. [Related pubchem assays (depositor defined):AID1813, AID1829]; format: functional
[3] = Luminescence Cell-Based Dose HTS Response to Identify Inhibitors of 5'UTR Stem-Loop Driven Prion Protein mRNA Translation in H4-C Neuroglioblastoma Cells. [Related pubchem assays (depositor defined):AID1814, AID1827]; format: functional
[4] = luciferase reporter signal suppression in cells – H4 neuroglioma cells, luminescence, dose response (AID 1990); format: functional, cell-based
[5] = Luminescence Cell-Based Dose Confirmation HTS to Identify Inhibitors of 5'UTR Stem-Loop Driven Alpha-Synuclein mRNA Translation in H4 Neuroglioblastoma Cells. [Related pubchem assays: 1827 (Project Summary), 1813 (Primary HTS)]; format: functional
[6] = Luminescence Cell-Based Dose Response HTS to Identify Activators of Luciferase Translation or Activity in H4-C Neuroglioblastoma Cells. [Related pubchem assays: 1829 (Project Summary), 1814 (Primary HTS)]; format: functional
[7] = alpha-synuclein stem-loop luciferase translation blockers – H4 neuroglioma cells, luminescence, confirmation (AID 1988); format: functional, cell-based
[8] = Luminescence Cell-Based Dose Response HTS to Identify Inhibitors of 5'UTR Stem-Loop Driven Prion Protein mRNA Translation in H4 Neuroglioblastoma Cells. [Related pubchem assays: 1827 (Project Summary), 1813 (Primary HTS)]; format: functional
[9] = Luminescence Cell-Based Dose Response HTS to Identify Activators of 5'UTR Stem-Loop Driven Prion Protein mRNA Translation in H4-C Neuroglioblastoma Cells. [Related pubchem assays: 1829 (Project Summary), 1814 (Primary HTS)]; format: functional
[10] = HEK-293T viability loss after treatment – luminescence, T-cell screen hits, cytotoxicity control for TCR NF-kB inhibitor project, dose response (AID 489026); format: functional, cell-based;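 note: cells exposed to compound about 14 hours before the viability readout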
[11] = Luminescence Cell-Based Dose Response HTS to Identify Inhibitors of Luciferase Translation or Activity in H4-C Neuroglioblastoma Cells. [Related pubchem assays: 1813 (Primary HTS), 1827 (Project Summary)]; format: functional
[12] = molecular target: Sphingosine 1-phosphate receptor 4 (Homo sapiens, UniProt O95977); experiment: Late-stage fluorescence dose response cell-based assay to identify agonists of the Sphingosine 1-Phosphate Receptor 4 (S1P4): purchased compounds EC50. [Related pubchem assays (depositor defined):AID1509, AID1523, AID1563, AID1686, AID1701, AID1801]; format: functional
Sequence of Sphingosine 1-phosphate receptor 4 (O95977 whole entry): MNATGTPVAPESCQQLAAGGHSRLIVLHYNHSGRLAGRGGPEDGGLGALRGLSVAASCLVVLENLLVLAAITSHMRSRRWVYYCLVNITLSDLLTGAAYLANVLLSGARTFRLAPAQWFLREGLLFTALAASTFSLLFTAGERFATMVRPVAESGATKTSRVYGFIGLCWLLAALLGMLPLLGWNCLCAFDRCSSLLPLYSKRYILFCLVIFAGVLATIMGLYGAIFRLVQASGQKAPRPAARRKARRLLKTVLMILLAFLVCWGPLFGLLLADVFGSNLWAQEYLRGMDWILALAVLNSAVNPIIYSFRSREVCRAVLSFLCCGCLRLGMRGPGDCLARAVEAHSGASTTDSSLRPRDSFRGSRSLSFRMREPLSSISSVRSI

[13] = test system: T-cell; experiment: loss of vesicle association with mouse CD8+ T cells – mouse 2C CD8+ T cells, flow cytometry, dose response (AID 485284); format: functional
[14] = molecular target: T1, Tyrosine-protein phosphatase non-receptor type 7 (Homo sapiens, UniProt P35236); experiment: SAR analysis of chemical inhibitors of HePTP using a Fluorescent assay - Set 2. [Related pubchem assays (depositor defined):AID1059, AID1077, AID1661, AID2085, AID521]; format: functional
T1 sequence (P35236 whole entry): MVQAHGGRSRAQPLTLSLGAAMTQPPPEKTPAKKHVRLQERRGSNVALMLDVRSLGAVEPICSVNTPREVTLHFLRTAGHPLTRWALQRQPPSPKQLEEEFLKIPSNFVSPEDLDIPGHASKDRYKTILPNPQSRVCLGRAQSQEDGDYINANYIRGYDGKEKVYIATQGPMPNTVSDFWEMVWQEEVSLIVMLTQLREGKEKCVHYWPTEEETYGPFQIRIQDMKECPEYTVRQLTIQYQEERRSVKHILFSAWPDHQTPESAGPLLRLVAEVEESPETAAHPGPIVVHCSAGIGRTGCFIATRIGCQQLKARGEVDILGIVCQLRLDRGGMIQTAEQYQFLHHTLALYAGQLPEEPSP

[15] = molecular target: Dual specificity protein phosphatase 3 (Homo sapiens, UniProt P51452); experiment: SAR VHR1 Fluorescent Assay for In Vitro dose response studies Set 2. [Related pubchem assays (depositor defined):AID1654, AID1661, AID1878]; format: functional
Sequence of Dual specificity protein phosphatase 3 (P51452 whole entry): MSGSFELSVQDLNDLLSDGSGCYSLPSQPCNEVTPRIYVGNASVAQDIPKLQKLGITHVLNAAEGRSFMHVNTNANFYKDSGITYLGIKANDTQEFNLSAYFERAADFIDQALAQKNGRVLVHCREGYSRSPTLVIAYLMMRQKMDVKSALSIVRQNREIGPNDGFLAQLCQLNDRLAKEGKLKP

Sequence of Cytochrome P450 2C9 (P11712 whole entry): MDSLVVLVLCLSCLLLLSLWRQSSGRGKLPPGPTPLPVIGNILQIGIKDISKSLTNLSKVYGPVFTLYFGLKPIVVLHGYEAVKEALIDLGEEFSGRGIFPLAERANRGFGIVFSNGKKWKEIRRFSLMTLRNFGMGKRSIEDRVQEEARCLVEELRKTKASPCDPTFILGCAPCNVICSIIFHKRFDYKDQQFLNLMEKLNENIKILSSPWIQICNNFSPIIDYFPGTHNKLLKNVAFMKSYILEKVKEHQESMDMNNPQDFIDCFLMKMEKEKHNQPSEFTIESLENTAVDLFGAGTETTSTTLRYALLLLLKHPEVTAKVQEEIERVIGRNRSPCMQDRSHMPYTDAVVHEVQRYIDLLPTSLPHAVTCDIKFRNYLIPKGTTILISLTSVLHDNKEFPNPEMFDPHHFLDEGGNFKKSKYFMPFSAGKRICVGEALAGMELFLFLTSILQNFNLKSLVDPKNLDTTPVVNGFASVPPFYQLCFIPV

In the case of `O=C(COc1ccccc1-c1ccccc1)N/N=C/c1cccc2ccccc12`, the AC50 [1] is reported as 20 µM (inconclusive), the EC50 [2] is reported as 1.84 µM (inconclusive) and the EC50 [3] is reported as 1.76 µM (active). For the same molecule, the EC50 [4] was 11.5 µM (active), the EC50 [5] was 1.74 µM (active) and the EC50 [6] was 0.921 µM (inconclusive). For the same molecule, the EC50 [7] was < 0.195 µM (active), the EC50 [8] was > 120 µM (not active) and the EC50 [9] was 0.695 µM (inconclusive). For the same molecule, the IC50 [10] was > 80 µM (inactive) and the EC50 [11] was 0.85 µM (active).
With `Cc1nn(Cc2ccccc2)c(Cl)c1C(=O)OC(C)C(=O)Nc1nc(-c2ccccc2)cs1` (stereo not given) the EC50 [12] was > 50 µM (inactive).
With `CCC(C(=O)Nc1ccccc1)c1ccccc1` (stereo not given) the EC50 [13] was 0.0882 µM (active).
In the case of `COc1cc(C(=S)NCc2ccc(F)cc2)ccc1O`, the IC50 [14] is reported as > 100 µM (inactive) and the IC50 [15] is reported as 99.5 µM (inactive).
